# Results: US20060128608A1, “Novel chemical compounds and their use” (priority 2002, published 2006)
# System: E.coli ATCC25922
# Experiment: Antibiotic activity: minimum inhibitory concentration (MIC)
# Format: cell-based
# Settings: Escherichia coli; strain ATCC25922
# Procedure: (§1) Antibiotic activities were determined using measurement of minimum inhibitory concentrations by standard procedures referring to the Manual of Commercial Methods in Clinical Microbiology. Ed. Allan L. Truant. ASM Press (2002) and are reported as concentrations (μM).
row,Molecule,MIC
1,NC1CC(O)C(CNC(=O)[C@@H](N)CC(=O)O)OC1OC1C(N)CC(N)C(OC2OC(CO)C(O)C(N)C2O)C1O (stereo partly drawn) [Compound 33],> 32 µM

# System: P.aeruginosa ATCC27853
# Experiment: as above
# Format: cell-based
# Settings: Pseudomonas aeruginosa; strain ATCC27853
# Procedure: as §1
row,Molecule,MIC
1,NCC1OC(OC2C(N)CC(N)C(OC3OC4COC(=O)CCCCCCCCCCC(=O)OC4C(N)C3O)C2O)C(N)CC1O (stereo not drawn) [Compound 30],64 µM
2,"NC[C@H]1O[C@H](O[C@H]2[C@H](O)[C@@H](O[C@H]3O[C@H](CO)[C@@H](O)[C@H](N)[C@H]3O)[C@H](N)C[C@@H]2N)[C@H](N)C[C@@H]1O [Tobramycin, reference compound]",2 µM
3,CCCCCCC(=O)OCC1OC(OC2C(N)CC(N)C(OC3OC(CN)C(OC(=O)CCCCCC)CC3N)C2O)C(OC(=O)CCCCCC)C(N)C1OC(=O)CCCCCC (stereo not drawn) [Compound 31],32 µM
4,NC1CC(O)C(CNC(=O)[C@@H](N)CC(=O)O)OC1OC1C(N)CC(N)C(OC2OC(CO)C(O)C(N)C2O)C1O (stereo partly drawn) [Compound 33],> 64 µM
5,"NCC[C@H](O)C(=O)N[C@@H]1C[C@H](N)[C@@H](O[C@H]2O[C@H](CN)[C@@H](O)[C@H](O)[C@H]2O)[C@H](O)[C@H]1O[C@H]1O[C@H](CO)[C@@H](O)[C@H](N)[C@H]1O [Amikacin, reference compound]",7.5 µM
6,NC1CC(O)C(CNC(=O)C[C@H](N)C(=O)O)OC1OC1C(N)CC(N)C(OC2OC(CO)C(O)C(N)C2O)C1O (stereo partly drawn) [Compound 32],> 64 µM

# Same assay, conditions: strain ATCC27853
row,Molecule,MIC
1,"CCCCCCCCCCCCCCCC(=O)OCC1OC(OC2C(N)CC(N)C(OC3OC(CN)C(O)CC3N)C2O)C(O)C(N)C1O (stereo not drawn) [Compound 25, Tobramycin 6″-Palmitoyl Ester]",16 µM
2,Neomycin [reference compound],30 µM
